“Also recorded” adds a separate entry of the source.
Key:
primary OPCs [1] = assay: Survival of OPCs exposed to toxic lipids (calcein AM / propidium iodide, CELIGO); type: cell-based
Procedure: Whether toxic lipids have similar effects on the function of oligodendrocyte precursor cells (OPCs, the direct ancestors of myelin-forming oligodendrocytes), due to the common features of myelin breakdown and failure to repair such damage in LSDs, was determined. These experiments all used standard techniques (see Mayer et al. PNAS, 91: 7496-7500 (1994); Ibarrola et al. Dev. Biol. 180: 1-121 (1996); Smith et al. PNAS 97: 10032-10037 (2000); Power et al. Dev. Biol. 245: 362-375 (2002); Dietrich et al. J. Biol. 5: e22 (2006); Li et al. PLoS Biol. 5: e35 (2007)), as adapted to enable rapid automated analysis of microscopy images captured using the CELIGO® imaging system (Brooks Automation, Chelmsford, Mass.). This system enables collection of data using brightfield and three-color fluorescence and provides similar information to be obtained at the single cell level in adherent cell cultures as yielded by flow cytometry. This approach enables quantitatively analysis of 80 different experimental conditions (in triplicate) per hour.
(§1) Studies on division and survival of OPCs exposed to 0.1, 0.5, 1, 2, 5 or 10 μM PC, GPS or LS were conducted for 1, 2, 3 or 5 days. These experiments followed standard procedures (see Mayer et al. PNAS, 91: 7496-7500 (1994); Dietrich et al. J. Biol. 5: e22 (2006); and Han et al. J. Biol. 7 (4):12 (2008)) except that cell death was quantified using calcein AM and propidium iodide (PI) labeling of live cultures was used to identify live and dead cells, respectively. […] These dyes effectively overcome the problems with dyes for which cell numbers are inferred from metabolic activity (e.g., MTT, Alamar Blue), and provide quantitative information on cell numbers. Independent confirmation was obtained in all cases by visual examination of cultures. In these, and all other cases, all experiments were repeated at least three times, and all data points were collected in triplicate. All experiments were conducted in conditions of 5% O2, to more closely mimic physiological oxygen concentrations.
The sensitivity of primary OPCs to PC was determined. The sensitivity of the cells to glucopsychosine (GPC) and lysosulfatide (LS) was also examined. […] Thus, OPCs are even more sensitive to PC than oligodendrocytes, which are sensitive at 10 μM psychosine. More critically, they are an order of magnitude more sensitive than indicated by studies described in Zaka et al. (Mol. Cell Neurosci. 30 (3): 398-407 (2005)) on immortalized cell lines.

[2] = tested on: human fetal neuroepithelial stem cells (hNSCs); assay: Sensitivity of human CNS precursor cells to toxic lipids; type: cell-based
OPCs = assay: OPC division by clonal analysis in the presence of psychosine; type: cell-based, rat; settings: OPCs grown in the presence of PDGF for 6 days
Procedure: As shown, by day 3 even 3.3 μM PC caused marked cell death. Division was analyzed by clonal analysis, and exposure to 1 μM PC caused a marked reduction in clonal size for cells grown in the presence of PDGF for 6 days.
as §1

[3] = tested on: oligodendrocyte progenitor cells; assay: Migration of oligodendrocyte progenitor cells outward from a drop of cells; type: cell-based; settings: OPCs exposed to PDGF; not a lethal level
Procedure: Exposure of oligodendrocyte progenitor cells to 1 μM psychosine is enough to greatly reduce cell migration.
Another aspect of psychosine function is to cause alterations in the cytoskeleton, which in dividing cells is manifested as a failure of migration. The migration of oligodendrocyte progenitor cells outward from a drop of cells was examined. Cells were stained with calcein to label living cells and propidium iodide (PI) to label dead cells. […] This effect was observed on multiple cell types.

[4] = tested on: lysosomal pH of cells exposed to psychosine; assay: Lysosomal pH in cells exposed to psychosine; type: cell-based; settings: cells exposed to psychosine versus normal cells
Text: The effects of cytoskeletal collapse and changes in lysosomal pH were examined. […] The agents that protect both division and survival also restore lysosomal pH to a normal range. However, […] that rescue cell division examined for their effects on lysosomal pH also restore normal levels of pH. Thus, rescuing lysosomal pH is not sufficient to rescue cell survival. Further, agents chosen solely on the basis of rescue of lysosomal pH are not sufficient to also function as rescue agents in cell survival.

oligodendrocytes = settings: cited from earlier work
[5] = tested on: immortalized cell line characterized as an oligodendrocyte progenitor cell line; settings: Zaka et al., cited from earlier work
primary OPCs [6] = assay: Screen for protection against OPC death induced by lethal concentrations of psychosine; type: cell-based, rat
Procedure: (§2) Experiments were conducted to identify FDA-approved agents that rescue precursor cells of the CNS from the effects of the lipids thought to be toxic in KD, GD and MLD. To identify therapeutic agents that could be candidates for relatively rapid translation to the clinic, candidate agents were screened (based on cellular and molecular analyses) and unbiased drug screens were conducted using the NINDSII library of 1040 compounds approved by the FDA or in clinical trials. The intent of these screens was to discover previously unknown activities of agents for which pharmacokinetic and toxicological information is already available. The initial screening assays used are for (i) protection against OPC death induced by lethal concentrations of toxic lipids (48 hr exposure) and (ii) protection of OPC division induced by exposure to sublethal concentrations of toxic lipids.
In this screen, a library of 1040 compounds, either approved for use or in clinical trials, were examined at three different doses for their ability to protect against psychosine-induced cell death. […]

primary OPCs [7] = assay: Screen for protection of OPC division at sublethal concentrations of psychosine; type: cell-based, rat; settings: psychosine concentrations that suppress division without appreciable death
Procedure: as §2, with “lipids. […]” for “lipids.”

[8] = tested on: primary oligodendrocyte progenitor cells; assay: Protection of OPCs against toxicity of glucopsychosine and lysosulfatide; type: cell-based; settings: OPC survival
Text: Since lysosomal storage disorders are so rare, there is a strong disincentive to invest heavily in treatments. Therefore, there is a clear need to identify agents that would be of use in the treatment of multiple lysosomal storage disorders. […] Nonetheless, due to the importance of such a goal, the agents that protect against both cell death and suppression of cell division caused by exposure to psychosine were examined in order to determine their potential utility in protection against the toxic effects of glucopsychosine (elevated in Gaucher's disease) and of lysosulfatide (elevated in metachromatic leukodystrophy). These diseases were chosen as they come from two functionally different disease groups as defined by a cellular assay for lysosomal function wherein BODIPY-LacCer uptake is detected.
The ability of agents that protect against psychosine mediated suppression of cell division and cell survival to also protect against the toxicity of glucopsychosine and lysosulfatide was examined.

twitcher −/− mice = assay: In vivo treatment of twitcher -/- mice (model of Krabbe disease); settings: for appearance and behavior (films, still images): 24-day-old twi−/− mice
Text: In order to determine whether agents identified in in vitro studies are capable of providing an in vivo benefit, the effects of IGF-1 were examined in twitcher −/− mice, an accepted model of Krabbe disease. The twitcher −/− mice harbor a mutation in galactocerebosidase that mimics Krabbe disease. The strategy for in vivo analyses was to determine whether FDA-approved compounds of potential interest improve neurological symptoms and/or extend survival times of twi−/− mice. These studies used techniques employed in studies on toxicity of chemotherapeutic agents for the CNS (See Dietrich et al. J. Biol. 5 (7): e22 (2006); Han et al. CNS J. Biol. 7: e12 (2008)).
In in vivo experiments, IGF-I was administered daily, beginning 10 days after birth, through i.p. injection (100 μg/kg, which is below dosages used in other studies using peripheral administration (See Aberg et al. J. Neurosci. 20: 2896-2903 (2000)). This time point is earlier than the expression of neurological symptoms but is considerably later than that used in attempts to treat these mice by HSC transplants, enzyme replacement therapy or both combined (See Qin et al. Mol. Genet. Metab. 107: 186-196 (2012)). Mice were evaluated at 24 days of age to enable analysis of cell division in vivo. Comparative analysis after 40 days was not possible due to death of the control (saline-treated) twi−/− mice shortly after 40 days of age.
Drugs are delivered once daily by i.p. administration (using 100 μg/kg, which provide benefit (see FIG. 8). All animals are marked and genotyped within the first week after birth to identify +/+, +/− and −/− pups. Outcome measures such as (i) weight gain, motor activity, rotorod analysis, auditory brainstem response and survival are analyzed.
Mice were sacrificed at Day 25 to examine OPC division in vivo (FIG. 8).

[9] = twi−/− mice, 24 days of age, 100 μg/kg i.p. daily
[10] = immortalized cell line, 50 μM psychosine

Which “exposure level as low as which toxic for OPCs” value (primary OPCs [1]) does the source give for `CCCCCCCCCCCCC/C=C/[C@@H](O)C(N)CO[C@@H]1O[C@H](CO)[C@@H](O)[C@H](O)[C@@H]1O` (stereo partly drawn) [glucopsychosine] here?
The value was 3.304.

What about the “exposure range toxic for primary OPCs and other primary CNS cells” value (primary OPCs [1]) of the same compound?
The value was “low micromolar range”.

And the “vulnerability of hNSCs compared with rat OPCs” value [2]?
Its value is “at least as vulnerable”.

For `CCCCCCCCCCCCC/C=C/[C@@H](O)[C@@H](N)CO[C@@H]1O[C@H](CO)[C@H](O)[C@H](O)[C@H]1O` [psychosine], which “exposure level as low as which toxic for OPCs” value (primary OPCs [1]) is on record?
The value was 5 µM.

And the “concentration causing marked cell death” value (primary OPCs [1]; purified OPCs, by day 3, calcein AM, CELIGO)?
Its value is 3.3 µM.

And the “concentration causing marked reduction in clonal size” value (OPCs)?
Its value is 1 µM.

And the “concentration enough to greatly reduce cell migration” value [3]?
Its value is 1 µM.

What about the “vulnerability of hNSCs compared with rat OPCs” value [2] of the same compound?
Its value is “at least as vulnerable”.

What about the “effect on pH of exposed cells” value [4] of the same compound?
Its value is “becomes more alkaline”.

And the “concentration at which oligodendrocytes are sensitive” value (oligodendrocytes)?
The value was 10 µM.

And the “concentration at which immortalized OPC line is vulnerable / marked cell death” value ([5]; over 24 hours)?
Its value is 50 µM.

For “IGF-1: insulin-like growth factor-I, polypeptide”, which “dosage at which beneficial effects on survival are seen” value (primary OPCs [6]; primary OPCs exposed to psychosine) is on record?
Its value is 10 ng/mL.

What about the “rescue of cell survival from psychosine” value (primary OPCs [6]; primary OPCs, lethal psychosine exposure) of the same compound?
Its value is “ability to protect both cell division and cell survival; also recorded: rescued both division and survival; also recorded: protects against psychosine mediated suppression of cell division and cell survival; also recorded: inhibit cell death and reduce suppression of cell division”.

What about the “rescue of cell division from psychosine” value (primary OPCs [7]) of the same compound?
The value was “ability to protect both cell division and cell survival; also recorded: rescued both division and survival; also recorded: protects against psychosine mediated suppression of cell division and cell survival; also recorded: inhibit cell death and reduce suppression of cell division; also recorded: Rescue of cell division is also achieved at physiologically relevant dosages”.

And the “protection against toxicity of glucopsychosine” value [8]?
Its value is “protects against the toxicity of glucopsychosine and lysosulfatide; also recorded: similarly effective against lysosulfatide and glucopsychosine as it was against psychosine”.

What about the “protection against toxicity of lysosulfatide” value ([8]; survival data at 5 days) of the same compound?
Its value is “protects against the toxicity of glucopsychosine and lysosulfatide; also recorded: similarly effective against lysosulfatide and glucopsychosine as it was against psychosine”.

What about the “appearance and behavior (films, still images)” value (twitcher −/− mice; 100 μg/kg i.p. daily) of the same compound?
Its value is “normal body extension, sleek fur and evidence of extensive locomotor behavior”.

What about the “appearance and behavior (films, still images)” value (twitcher −/− mice; 100 μg/kg i.p. daily, listed as IGF-I) of the same compound?
Its value is “essentially normal in appearance”.

And the “locomotor activity (velocity of movement, cm/sec)” value (twitcher −/− mice; [9])?
The value was “statistically normal locomotor activity”.

What about the weight gain (twitcher −/− mice; [9]) of the same compound?
Its weight gain is “normal weight gain”.

And the “locomotor activity (velocity of movement, cm/sec)” value (twitcher −/− mice; twi−/− mice, 24 days of age, 100 μg/kg i.p. daily, listed as IGF-I)?
Its value is “restores movement to normal levels”.

And the “more dividing OPCs than in saline-treated mice” value (twitcher −/− mice; twi−/− mice, corpus callosum, Day 25, 100 μg/kg i.p. daily from 10 days after birth)?
Its value is ~45%.

What about the “dose giving marked protection from psychosine-induced cell death” value [5, 10] of the same compound?
Its value is “one”.

And the “exposure level giving slight (marginal) reduction of psychosine-induced cell death” value [5, 10]?
The value was 100 ng/mL.
